Test results published in article PMC11775185, “Structure and function of a near fully-activated intermediate GPCR-Gαβγ complex” (Nature Communications, 2025).

Key:
Test in all cases: GTPase-Glo luminescence, Lineweaver-Burk
[1] = test system: T1, WT*-mediated Gαsβγ (A2AR-Gαsβγ complex); assay type: biochemical, Homo sapiens; conditions: agonist-activated WT* receptor (S5), with cognate GAP, pH […], room temperature
T1 construct: gene GNAS; cited protocols may use bovine/rat subunits), with purified A2AR_316 V229C in LMNG/CHS; Adenosine receptor A2a
Excerpt: GTPase-Glo luminescence, Lineweaver-Burk on WT*-mediated Gαsβγ (A2AR-Gαsβγ complex) | and the S5 mediated Gαsβγ (positive control)

Gαsβγ alone = test system: T2, Gαsβγ alone; assay type: biochemical; conditions: […] Gαsβγ without receptor, with cognate GAP, pH […], room temperature
T2 construct: gene GNAS; full-length Gαsβγ heterotrimer without receptor
Excerpt: GTPase-Glo luminescence, Lineweaver-Burk on Gαsβγ alone | Km values for S4 mediated Gαsβγ, in reference to Gαsβγ alone (negative control)

[2] = test system: T3, Gαsβγ (A2AR-Gαsβγ complex); assay type: biochemical, Homo sapiens; conditions: R291A receptor (S4), with cognate GAP, pH […], room temperature
T3 construct: gene GNAS; cited protocols may use bovine/rat subunits), with purified A2AR_316 V229C in LMNG/CHS; Adenosine receptor A2a
Excerpt: GTPase-Glo luminescence, Lineweaver-Burk on WT*-mediated Gαsβγ (A2AR-Gαsβγ complex) | we measured the initial rates and Michaelis constants of GTP hydrolysis

- Km [1]: 32.1 ± 1 µM
- Km (Gαsβγ alone): 8.3 ± 0.61 µM
- Km [2]: 18 ± 1.87 µM
Structure (SMILES): Nc1nc2c(ncn2[C@@H]2O[C@H](COP(=O)(O)OP(=O)(O)OP(=O)(O)O)[C@@H](O)[C@H]2O)c(=O)[nH]1 [GTP]
